{"source": "paper PMC12045974", "about": "“T cell toxicity induced by tigecycline binding to the mitochondrial ribosome” (Nature Communications, 2025)", "key": {"CD4+ and CD8+ T cells": {"tested_on": "CD4+ and CD8+ T cells", "assay": "Short-term activation assay, CD25 expression on stimulated T cells", "type": "cell-based, human", "conditions": "for mean MFI of CD25: 18 h after anti-CD3/CD28 activation + IL-2", "experimental": "After thawing frozen PBMCs, cells were washed with RPMI complemented with 10% FBS, 2.05 mM L-glutamine (Sigma), and 55 μM 2-ME (Gibco) and rested at 37 °C (5% CO2) for 30 min. 250,000 cells per well were seeded in 96-well U-bottom plates with/without Human T-Activator CD3/CD28 beads (Invitrogen) at a 1:1 ratio and 10 ng/ml IL-2 (Proteintech) in RPMI-1640 medium mentioned above. At the same time, antibiotics were added. For the short-term activation assay, cells were harvested 18 h post-stimulation and stained with Aqua fixable live/dead dye (Invitrogen) and surface markers. For the proliferation assays, cells were stained with CFSE (eBioscience) or Cell Trace Violet (ThermoFisher Scientific) dyes before seeding and stimulation, according to the manufacturer’s recommendations. For TCR priming experiments, tigecycline was added at 0, 24 or 72 h post-activation. For mitochondrial mass measuring, cells were stained with Mitotracker Green Fm Dye (Thermo Fisher Scientific) after incubation with Tigecycline. After incubation for 6 days with a half medium (complete, with antibiotics and IL-2) change after 3 days, cells were harvested via centrifugation, and stained with live/dead dye and surface markers for analysis by flow cytometry. The Foxp3/Transcription Factor Staining Buffer Set (Invitrogen) was used to fix cells according to the manufacturer’s instructions. The FACS gating strategy is shown in Supplementary Fig. 2D. Flow cytometry was carried out on a BD Celesta (BD Biosciences) and analyzed in FlowJo (TreeStar) software."}, "[1]": {"tested_on": "55S mitochondrial ribosomes (mitoribosomes) from Jurkat T cells", "assay": "Single-particle cryo-EM of mitoribosome-tigecycline complex", "type": "binding, human", "conditions": "30 µM", "experimental": "Jurkat T cells were grown in RPM1-1640 medium ( + 10% FBS, 2.05 mM L-glutamine (Sigma), and 55 μM 2-ME (Gibco)) in a vented flask shaking at 120 rpm at 37 °C under 5% CO2. The culture was scaled up by splitting at a cell density of 1.6 × 10^6 cells/ml. A final volume of 1.5-liter cells at a density of 1 × 10^6 cells/ml was harvested by centrifugation at 1000 x g for 10 min at 4 °C. After being washed with cold PBS buffer, the cell pellet was resuspended in the cold hypotonic MSE buffer (with 0.6 M mannitol, 10 mM Tris–HCl pH 7.4, 1 mM EDTA, 0.1% BSA), and ruptured on ice by a semi-automatic homogenizer (Schuett-biotech). The lysate was clarified by centrifugation at 400 x g and 4 °C for 10 min. The pellet was resuspended and subsequently homogenized. After 3 cycles of homogenization-centrifugation, the cell lysates were combined and the mitochondria were pelleted by additional centrifugation at 11,000 x g and 4 °C for 10 min. […]\nThe purified mitochondria were thawed and lysed by incubating at 4 °C for 30 min in the lysis buffer (25 mM HEPES–KOH pH 7.5, 20 mM Mg(OAc)2, 50 mM KCl, 2% (vol/vol) Triton X-100, 2 mM Dithiothreitol (DTT), 1× cOmplete EDTA-free protease inhibitor cocktail (Roche), 40 U/μl RNase inhibitor (Invitrogen)). […] The concentration of the purified monosomes was quantified by nanodrop. […]"}}, "note": "Where “and” joins values, the source holds several entries; their conditions need not be identical. Equal entries are not always repeated.", "data": [{"smiles": "CN(C)c1cc(NC(=O)CNC(C)(C)C)c(O)c2c1C[C@H]1C[C@H]3[C@H](N(C)C)C(O)=C(C(N)=O)C(=O)[C@@]3(O)C(O)=C1C2=O", "note": "[Tigecycline, tigecycline]", "values": [{"measurement": "mean MFI of CD25", "setting": "CD4+ and CD8+ T cells; CD4, 2.5 μM", "result": "3754 and 3553 and 3674"}, {"measurement": "mean MFI of CD25", "setting": "CD4+ and CD8+ T cells; CD4, 5 μM", "result": "3471 and 3450 and 3256"}, {"measurement": "mean MFI of CD25", "setting": "CD4+ and CD8+ T cells; CD4, 10 μM", "result": "3082 and 3057 and 2814"}, {"measurement": "mean MFI of CD25", "setting": "CD4+ and CD8+ T cells; CD8, 2.5 μM", "result": "4522 and 5003 and 6223"}, {"measurement": "mean MFI of CD25", "setting": "CD4+ and CD8+ T cells; CD8, 5 μM", "result": "4093 and 4409 and 4799"}, {"measurement": "mean MFI of CD25", "setting": "CD4+ and CD8+ T cells; CD8, 10 μM", "result": "3582 and 3463 and 3588"}, {"measurement": "expression of T cell activation marker CD25 (IL2RA)", "setting": "CD4+ and CD8+ T cells; stimulated CD4+ and CD8+ T cells, 18 h post-priming", "result": "reduced expression"}, {"measurement": "occupancy on the mitoribosome", "setting": "[1]; mtSSU and mtLSU site-1, P-site-only class", "result": "exceeding 80%"}, {"measurement": "binding sites on the mitoribosome", "setting": "[1]; one on the mtSSU, two on the mtLSU", "result": "three densities corresponding to tigecycline molecules"}]}]}
